Experimental data as given in ChEMBL document CHEMBL5120906, “Oxalierpenes A and B, Unusual Indole-Diterpenoid Derivatives with Antiviral Activity from a Marine-Derived Strain of the Fungus Penicillium oxalicum” (J Nat Prod, 2022).

Assays:
[1] = Therapeutic index, ratio of CC50 for Cytotoxicity against dog MDCK cells to IC50 for Antiviral activity against Influenza A virus A/WSN/33(H1N1) infected in dog MDCK cells; type: toxicity, cell-based; settings: read-out: Ratio CC50/IC50
[2] = test system: Respiratory syncytial virus; assay: Antiviral activity against Respiratory syncytial virus infected in human HEp-2 cells assessed as inhibition of virus-induced cytopathic effect by CPE inhibition assay; type: functional, organism-based
[3] = Cytotoxicity against human HEp-2 cells assessed as reduction in cell viability; type: toxicity, cell-based
[4] = test system: Influenza A virus; assay: Antiviral activity against Influenza A virus A/WSN/33(H1N1) infected in dog MDCK cells assessed as inhibition of virus-induced cytopathic effect by CPE inhibition assay; type: functional, organism-based
[5] = Cytotoxicity against dog MDCK cells assessed as reduction in cell viability; type: toxicity, cell-based, Canis lupus familiaris
[6] = Therapeutic index, ratio of CC50 for Cytotoxicity against human HEp-2 cells to IC50 for Antiviral activity against Respiratory syncytial virus infected in human HEp-2 cells; type: toxicity, cell-based; settings: read-out: Ratio CC50/IC50

Row | Compound | selectivity ratio [1] | IC50 [2] | CC50 [3] | IC50 [4] | CC50 [5] | selectivity ratio [6]
1 | CC1(C)C=C2C(=Cc3cc4c5c([nH]c4cc32)[C@@]2(C)[C@@H](CCC3=C([C@@H]4OC(C)(C)[C@@H](O)C4=O)C(=O)CC[C@@]32C)C5)C(C)(C)O1 | 2.8 | 6.7 µM | 31 µM | 9.4 µM | 27 µM | 4.6
2 | CC1(C)C=C2C(=Cc3cc4c5c([nH]c4cc32)[C@@]2(C)[C@@H](CC[C@@]34O[C@@]6(O)[C@H](O)C(C)(C)O[C@H]6[C@@H]3C(=O)CC[C@]24C)C5)C(C)(C)O1 | 3.5 | 2.8 µM | 15 µM | 3.7 µM | 13 µM | 5.5
3 | NC(=O)c1nc(F)c[nH]c1=O [FAVIPIRAVIR] | > 28 |  |  |  | > 1000 µM | 
4 | NC(=O)c1ncn([C@@H]2O[C@H](CO)[C@@H](O)[C@H]2O)n1 [RIBAVIRIN] |  | 19 µM | > 1000 µM |  |  | > 54
